Experimental findings from patent US20180200323A1, “USE OF TETRAPEPTIDE -3 GEKG OR PENTAPEPTIDE -3 GEKGF FOR TREATING DEGENERATIVE JOINT DISEASE” (priority 2017, published 2018) are described below.

One assay deals with synovial liquid. The assay can be described thus: Rabbit knee cartilage defect model: biochemical indicators (NO, SOD, MDA) in synovial liquid. The format is in vivo, New Zealand white rabbits. The source says: As used in the present invention, all of the methods for measuring SOD, NO and MDA in synovial liquid and collagen and proteoglycan in extracellular matrix of cartilage have been known and conventionally used in the art.
(§1) Fifteen (15) healthy adult New Zealand white rabbits were randomly divided into three (3) groups: a normal control group (Group A), a model control group (Group B) and a test group subject to intra-articular injection of a test peptide (Group C), with five (5) rabbits included in each of the groups. Fasting was conducted within four hours before surgical operations. Ketamine (10 mg/kg) and atropine (0.2 mg/kg) were injected in the muscle of each rabbit. After anesthesia took effect, each rabbit was confined to an operating table. An 8 cm-long longitudinal scission was made in the back of each knee before the skin was lifted. From the back of the knee, the articular capsule and synovial were opened. Then, the knee was bent for 90° to expose the cartilage at a lower end of the femur. Two cylindrical cutouts of 3 mm in diameter and 3 mm in depth were made. Coagulation was removed from each of the cutouts. The joint cavity was washed with a sterile saline solution. Stitches were made for each section. After the surgical operation, injection of penicillin was conducted against infection for a week. After five (5) days, each rabbit was able to eat and stand normally.
(§2) Two (2) weeks after the surgical operation, the rabbits of Group A and Group B were not treated, whereas the rabbits of Group C were subject to intra-articular injection of 250 ppm/kg of tetrapeptide-3 GEKG once for every seven (7) days, and the injection lasted for twelve (12) weeks. Articular injection of 0.5 ml of saline was executed, and then 0.2 ml of synovial liquid was collected. The articular capsule was cut and opened, synovial was removed, and an entire tibial joint was taken. Arthropathy in arthrodial cartilage was observed by bare eyes and also via surgical lens. Slices were taken, dyed by hematoxylin and eosin stain (HE Stain) and toluidine blue, and then observed in an optical microscope.

Assay [1] concerns arthrodial cartilage of the knee joint. Nature of the assay: Rabbit knee cartilage defect model: observation by bare eyes and histomorphometry. In kind it is in vivo, New Zealand white rabbits. The procedure:
as §1, §2

Assay [2] relates to cartilage cells of the growth plate. Nature of the assay: Cultivated cartilage cells: DNA content, collagen and proteoglycan production. The settings on record: 250 ppm. The format is cell-based, rabbits. On the procedure:
Firstly, cartilage cells of the growth plate of the same rabbits were taken and continuously cultivated. The cultivated cells were divided into three groups. In Group I, only 250 ppm of tetrapeptide-3 GEKG was added. In Group II, only 100 ng/ml of collagen was added. In Group III, 250 ppm of tetrapeptide-3 GEKG and 100 ng/ml of collagen were added. A negative control group was also used. After new tissues of cartilage grew at a lower portion of a centrifuge tube, the new tissues were transferred to a 24-well plate for continuing cultivation, wherein the culture medium was replaced for every 2 days. During the cultivation, samples were collected after three (3), seven (7) and fourteen (14) days, and then were analyzed.
For the histological and histochemical measurements, samples were collected, and HE dying and immunochemical measurement (S-P method) were executed.
The content of DNA in the cells of cartilage was determined by the method of Hoechst 33258.
Extracellular matrix of cartilage primarily comprises collagen and proteoglycan composed of glycosaminoglycan and core protein, in addition to water. The content of the matrix and its status of the metabolism were quantitatively analyzed by determining a level of the collagen and proteoglycan in the new tissues of cartilage.
The synthesis of the collagen of the cartilage is measured by the hydroxyproline method. Because the content of hydroxyproline in the collagen was substantially constant (about 10% by weight), an amount of hydroxyproline could be used to analyze the amount of the collagen of the cartilage by using a commercial kit including the hydroxyproline reagent. The content of the collagen in the samples was calculated.

Setting [3] is: Group C vs model control group B.
The mark [4] stands for this setting: Group C: intra-articular injection of 250 ppm/kg once every 7 days for 12 weeks.

“Also recorded” adds a separate entry of the source.

As for tetrapeptide-3 GEKG, in the assay on synovial liquid (setting [3]), the “MDA level in synovial liquid (change in words)” value is “considerably reduced” and the “SOD level in synovial liquid (change in words)” value is given as “considerably increased”. Further, in the assay on synovial liquid (setting [4]), the “MDA level in synovial liquid” value is 13.12 ± 2.28 c/mol · L^−1, the “NO level in synovial liquid” value was found to be 20.76 ± 2.88 c/mol · L^−1 and the “SOD level in synovial liquid” value turned out to be 6.60 ± 1.37 c/mol · L^−1. For the same substance, in assay [1] (setting [3]), the “Morphosis of the arthrodial cartilage compared with Group B” value is “significant improvement”. For the same substance, the “Histomorphometric observation of repaired tissues” value in assay [1] (Group C, HE and toluidine blue stain, optical microscope) was “the repaired tissues were not substantially different from the normal tissues of the knee joint; also recorded: considerably repaired the damaged tissues of cartilage”. For the same substance, the “Repair of knee joint injuries observed by bare eyes” value in assay [1] (Group C, after 12 weeks of intra-articular injection, 250 ppm/kg) is listed as “the injuries were completely repaired”. For the same substance, the “Hyperosteogeny of the cells of the cartilage” value in assay [2] (samples after 3, 7 and 14 days) is listed as “considerable hyperosteogeny”. The “Content of DNA of the cells of the cartilage (Hoechst 33258)” value in assay [2] (vs control group, FIG. 1) is “statistically different from that of the control group”. Besides, the “Production of collagen of extracellular matrix of cartilage (hydroxyproline method)” value in assay [2] (vs control group, FIG. 2) is “considerably increased”. The “Production of proteoglycan of extracellular matrix of cartilage” value in assay [2] (vs control group, FIG. 3) is recorded as “considerably increased”.
